Where only a bound is given, the exact number is not on record here.

Assay type in all cases: cell-based
Experiment [1] deals with T1, LPA1 (Homo sapiens, UniProt Q92633). In words: LPA1 Migration Assay (Oris). To be noted: read-out: Cell Migration EC50. Also noted: host or cells: primary fibroblasts (lung, dermal), HFL-1, 3T3 and CHO cells expressing LPA1R. The method, boiled down: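 Antagonist inhibition was derived by 4-parameter logistic fitting of migrated-cell counts against compound concentration. Dye-loaded, 12-24 h serum-starved fibroblasts, HFL-1, 3T3 or CHO cells expressing LPA1R moved into an Oris detection zone in response to LPA or serum, then were fixed and counted on a high-content reader.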

Experiment [2] deals with T1, LPA1. Put plainly: Ca Flux LPA1 assay. Also noted: the full-length cDNA for human LPA1 is obtained by PCR of the reverse transcription reaction; expressed in transfected cells.
The next experiment deals with T2, LPA/S1P GPCR of interest (Homo sapiens, UniProt Q92633).
T2 construct: host or cells: CHO
Put plainly: Beta-Arrestin based assay (PathHunter). In outline: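 EA Parental CHO cells (DiscoverX) were transfected with FuGENE (Roche) using CMV promoter-driven DNA constructs encoding the LPA/S1P GPCR of interest fused to a ProLink tag. Beta-arrestin recruitment in agonist mode was assessed 24-48 hrs later with PathHunter kits. Tests ran in quadruplicate in white 384 well plates, and end point luminescence was fit to a 4 parameter logistic function.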

T2 sequence (Q92633 whole entry): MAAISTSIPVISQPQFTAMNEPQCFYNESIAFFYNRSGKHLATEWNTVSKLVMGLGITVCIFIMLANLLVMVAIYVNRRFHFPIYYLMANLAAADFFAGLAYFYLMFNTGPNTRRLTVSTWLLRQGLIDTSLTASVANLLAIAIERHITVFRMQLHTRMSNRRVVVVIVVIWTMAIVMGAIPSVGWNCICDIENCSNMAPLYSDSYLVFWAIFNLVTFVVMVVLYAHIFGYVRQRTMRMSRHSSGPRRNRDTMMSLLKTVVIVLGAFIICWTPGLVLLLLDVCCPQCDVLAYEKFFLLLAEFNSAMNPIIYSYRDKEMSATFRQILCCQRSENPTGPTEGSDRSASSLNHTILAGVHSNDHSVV
T1 sequence (Q92633 whole entry): as above

By IC50 is commonly meant the concentration at which inhibition is half-maximal. Low readings indicate inhibition by little substance, high ones a need for much substance. `Cc1noc(-c2ccc(-c3ccc(Oc4c(F)cccc4C(=O)O)c(F)c3)cc2)c1NC(=O)O[C@H](C)c1ccccc1` [IT374]: the figures for the EC50 at LPA1 [1] and on LPA/S1P GPCR of interest were 0.05 to 0.5 µM and under 0.05 µM, respectively. This compound also came in with an IC50 against LPA1 [2] of 0.05 to 0.5 µM.
With `CCC(C)OC(=O)Nc1c(C)noc1-c1ccc(-c2ccc(Oc3ccccc3C(=O)O)cc2)cc1` (single isomer, unassigned) [IT494], the EC50 at LPA1 [1] was 0.05 to 0.5 µM; on LPA/S1P GPCR of interest, under 0.05 µM. The same compound registered an IC50 against LPA1 [2] of under 0.05 µM.
`C[C@@H](OC(=O)Nc1c(-c2ccc(-c3ccc(Oc4ccccc4C(=O)O)cc3)cc2)oc2ccccc12)c1ccccc1` (single isomer, unassigned) [IT495]: the EC50 at LPA1 [1] is 0.05 to 0.5 µM; on LPA/S1P GPCR of interest it was under 0.05 µM. The concentration for half-maximal inhibition (IC50) on LPA1 [2] is over 0.5 µM.
The matching figures for `C[C@@H](OC(=O)Nc1c(-c2ccc(-c3cc(F)c(Oc4cccnc4C(=O)O)c(F)c3)cc2)cnn1C)c1ccccc1` [IT436]: 0.05 to 0.5 µM, under 0.05 µM and under 0.05 µM.
As to `Cc1nnn(-c2ccc(-c3cc(F)c(Oc4ccccc4C(=O)O)c(F)c3)cc2)c1NC(=O)O[C@H](C)c1ccccc1` [IT408], the EC50 at LPA1 [1] and on LPA/S1P GPCR of interest was under 0.05 µM each time. This compound registered an IC50 on LPA1 [2] of under 0.05 µM.
As for `Cc1noc(-c2ccc(-c3cc(F)c(Oc4nccnc4C(=O)O)c(F)c3)cc2)c1NC(=O)O[C@H](C)c1ccccc1` [IT305], the EC50 on LPA1 [1] and at LPA/S1P GPCR of interest was under 0.05 µM throughout. This compound came in with an IC50 at LPA1 [2] of under 0.05 µM.
Consider `Cc1noc(-c2cc3sc(C#CC4(C(=O)O)CC4)cc3s2)c1NC(=O)O[C@H](C)c1ccccc1` [IT117], for which the figures for the EC50 at LPA1 [1] and on LPA/S1P GPCR of interest were 0.05 to 0.5 µM and under 0.05 µM, respectively. The compound further had an IC50 on LPA1 [2] of under 0.05 µM.
Consider `C[C@@H](OC(=O)Nc1c(C#Cc2cc(F)c(Oc3ncccc3C(=O)O)c(F)c2)cnn1C)c1ccccc1` [IT303], for which the EC50 on LPA1 [1] and on LPA/S1P GPCR of interest was 0.05 to 0.5 µM throughout. For the same compound, at LPA1 [2], the IC50 was under 0.05 µM.
`C[C@@H](OC(=O)Nc1c(-c2cc3sc(-c4ccc(C5(C(=O)O)CC5)cc4)cc3s2)cnn1C)c1ccccc1` [IT119]: the EC50 on LPA1 [1] was 0.05 to 0.5 µM; on LPA/S1P GPCR of interest, under 0.05 µM. On LPA1 [2], this compound gave an IC50 of over 0.5 µM.
The corresponding values for `Cc1noc(-c2ccc(-c3ccc(OC4(C(=O)O)CC4)cc3)cc2)c1NC(=O)O[C@H](C)c1ccccc1` [IT197] are under 0.05 µM, under 0.05 µM and under 0.05 µM.
For the compound `C[C@@H](OC(=O)Nc1c(-c2cc3sc(-c4ccc(C5(C(=O)O)CC5)cc4F)cc3s2)cnn1C)c1ccccc1` [IT245], the EC50 at LPA1 [1] is 0.05 to 0.5 µM; on LPA/S1P GPCR of interest, under 0.05 µM. On LPA1 [2], the half-maximal inhibitory concentration (IC50) was 0.05 to 0.5 µM.
On to `Cc1noc(-c2ccc(-c3cc(F)c(C4(C(=O)O)CC4)c(F)c3)cc2)c1NC(=O)O[C@H](C)c1ccccc1` [IT234], for which the EC50 at LPA1 [1] and on LPA/S1P GPCR of interest was under 0.05 µM in each case. This compound also yielded an IC50 against LPA1 [2] of under 0.05 µM.
Consider `Cc1nnn(-c2cc(F)c(-c3ccc(C4(C(=O)O)CCOCC4)cc3)cc2F)c1NC(=O)O[C@H](C)c1ccccc1` [IT030], for which the EC50 on LPA1 [1] and at LPA/S1P GPCR of interest was over 0.5 µM throughout. The 50% inhibitory concentration (IC50) at LPA1 [2] was over 0.5 µM.
`C[C@@H](OC(=O)Nc1c(C(F)(F)F)nnn1-c1ccc(-c2ccc(C3(C(=O)O)CC3)cc2)cc1)c1ccccc1` [IT072]: the EC50 on LPA1 [1] was over 0.5 µM. Also, on LPA1 [2], the IC50 is 0.05 to 0.5 µM.
The corresponding values for `Cc1nsc(-c2ccc(C3CCC(C4(C(=O)O)CC4)CC3)cc2)c1NC(=O)O[C@H](C)c1ccccc1` (some centres unmarked) [IT091] are over 0.5 µM and 0.05 to 0.5 µM.
The corresponding values for `C[C@@H](OC(=O)Nc1c(C#Cc2sc3cc(C4(C(=O)O)CC4)sc3c2C(F)(F)F)cnn1C)c1ccccc1` [IT103] are 0.05 to 0.5 µM and under 0.05 µM.
Turning to `Cc1nsc(-c2ccc(-c3ccc(C4(C(=O)O)CC4)cc3)cc2)c1NC(=O)OC(c1ccccc1)C(F)(F)F` (single isomer, unassigned) [IT078], the EC50 on LPA1 [1] was 0.05 to 0.5 µM. Besides, the IC50 on LPA1 [2] was in the range of 0.05 to 0.5 µM.

The values are drawn from patent US20140213538A1, “LYSOPHOSPHATIDIC ACID RECEPTOR ANTAGONISTS” (InterMune, Inc., priority 2013, published 2014).
